The assay addresses T1, methionine adenosyltransferase (MAT; S-adenosylmethionine synthetase) (Mycolicibacterium smegmatis, UniProt A0QWT3).
T1 sequence (A0QWT3 1-399): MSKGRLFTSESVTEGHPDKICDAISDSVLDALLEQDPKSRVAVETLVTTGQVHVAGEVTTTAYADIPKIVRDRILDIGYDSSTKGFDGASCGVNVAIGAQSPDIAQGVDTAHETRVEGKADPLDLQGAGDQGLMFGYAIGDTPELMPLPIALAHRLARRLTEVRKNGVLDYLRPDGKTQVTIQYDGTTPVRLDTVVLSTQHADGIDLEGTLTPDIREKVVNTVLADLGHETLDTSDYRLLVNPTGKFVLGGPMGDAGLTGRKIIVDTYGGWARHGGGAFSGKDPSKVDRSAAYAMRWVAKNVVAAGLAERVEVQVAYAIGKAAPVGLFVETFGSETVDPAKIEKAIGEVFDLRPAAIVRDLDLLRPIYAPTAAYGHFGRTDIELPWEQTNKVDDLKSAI
Put plainly: HPLC assay of SAM formation, Dixon plots with varied ATP. Format: biochemical.

The results in this text go back to publication PMC165446 (BMC Microbiology, 2003).

Usually Ki stands for the equilibrium dissociation constant of an inhibitor or competing ligand from its target. High values mean weaker binding, low ones tighter binding.

In the case of `Cn1cnc([N+](=O)[O-])c1Sc1ncnc2nc[nH]c12` [azathioprine], the Ki was found to be 3.74 ± 1 mM. `Nc1nc2nn[nH]c2c(=O)[nH]1` [8-azaguanine] registered an inhibition constant (Ki) of 4.7 ± 0.77 mM.
